Test: Compound 1 plasma concentration at trough (LC-MS) in piroxicam-accelerated MDR1a−/− colitis mice
Type: in vivo, mouse
Details: 90 mg/kg SC BID in 10% Cremophor-EL; trough blood after 3rd and 21st day of dosing; FIG. 1
Procedure: Compound 1 was dosed at 90 mg/kg in 10% Cremophor-EL, SC, BID. Vehicle was 10% Cremophor-EL and was administered SC, BID. Anti-mouse TNFα clone XT3.11 (Rat IgG1), 300 μg/mouse, QD/QOD; Isotype-matched control Clone HRPN (Rat IgG1), 300 μg/mouse, QD/QOD.
Blood was taken at trough from all Compound 1-dosed mice, and plasma analyzed by Liquid Chromatography-Mass Spectroscopy to determine Compound 1 concentration. Trough blood was taken after the 3rd day (left panel) and 21st day (right panel) of dosing (FIG. 1).

In the case of `CC(C)(C)c1ccc(S(=O)(=O)Nc2ccc(Cl)cc2C(=O)c2cc[n+]([O-])cc2)cc1` [Compound 1], the “Compound 1 plasma concentration at trough” value is reported as “met or exceeded the minimal concentration established for 98% receptor coverage”.

Source: patent US10792360B1, “Compositions and methods for treating inflammatory bowel disease using CCR9 inhibitor and anti-TNF-alpha blocking antibodies” (ChemoCentryx, Inc., priority 2019, dated 2020)
